Where two headings read alike, the source gives them in different places.
What was measured:
[1] = type: physicochemical; design: key to Fibril / Fibril Formation / TEM 2cat / Fibril: 1 = fibrils present; 0 non-fibrillar structures; conditions: for Fibril / Fibril Formation: TEM, 1 mg/mL, uranyl acetate stain, qualitative
[2] = type: physicochemical; conditions: for Tht category (> 1.5 to blank = +): category 1/0; for ThT Cat. / ThT-Fluorescence (categorical): ThT-active if fluorescence at least twice the control
Procedure, shortened: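 Fibrils (1 mg/mL solution) were mixed with 50 µM ThT in PBS for 15 min at RT, and fluorescence was read at λex 440/λem 488 nm against a PBS blank, as a triplicate mean ± SD. Zeta potential came from electrophoretic mobility (Smoluchowski) after 1 d aggregation at 1 mg/mL in PBS pH 7.4, diluted into 1 mM KCl.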

[3] = system: HIV-1 infection of TZM-bl cells; experiment: HIV-1 infectivity enhancement assay, β-galactosidase luminescence; type: cell-based
[4] = ThT fluorescence relative to blank, blank = 42.1851851851852
[5] = Feb2021; figures match the 1.3 µM column
[6] = Feb2021; infectivity relative to virus only
[7] = Feb2021; log10 of infectivity relative to EF-C
[8] = Feb2021; n-fold infectivity relative to EF-C
[9] = infectivity class (low / medium / high) of each library peptide; main list in c1-c6, same classes repeated in sub-lists of sequences containing the hydrophobicity/charge patterns P+,H0,P+,H0,P0,H0,P0; P+,H0,P0,H0,P0,H0,P0; P+,H0,P0,H0
[10] = log10 of HIV-1 infection of TZM-bl cells relative to EF-C; Fig S15 source data; asymmetric std dev errors
[11] = log10 of infection relative to EF-C, Figure 7B
[12] = n-fold infection vs virus only, relative to that of EF-C, 1.3 µM peptide
[13] = log10 of infection relative to EF-C, Figure 6C
[14] = Fig S8 panels B, D; infectivity enhancement relative to EF-C
[15] = Fig S8 panels B, D; infectivity n-fold relative to virus alone
[16] = infectivity class (low / medium / high) of the peptide in the sequence-pattern analysis, Fig. S22-A4; class limits not given
[17] = HIV-1 infection relative to EF-C; Fig 23 plot, panels A and B; mean of 3 values
[18] = HIV-1 infection relative to EF-C; Fig 23 plot, single data point, replicate 1
[19] = HIV-1 infection relative to EF-C; Fig 23 plot, single data point, replicate 2
[20] = HIV-1 infection relative to EF-C; Fig 23 plot, single data point, replicate 3
[21] = ThT fluorescence relative to blank (42.1851851851852 a.u.)
[22] = infectivity enhancement relative to EF-C (=1); Feb2021 run
[23] = infectivity n-fold relative to virus only; Feb2021 run
[24] = log10 of infectivity relative to EF-C; Feb2021 run
[25] = relative to blank 42.1851851851852 a.u.
[26] = Feb2021 run; infectivity n-fold relative to virus alone
[27] = Feb2021 run; log10 of infectivity relative to EF-C
[28] = Feb2021 run; n-fold infectivity relative to EF-C

Substance	TEM: 1= fibrils, 0= aggregates (micelle), 0.5 = aggregates and fibrils, -1 = nothing obersved, STD prep [1]	Tht category (> 1.5 to blank = +) [2]	infectivity [3, 9]	Log10 Inf. rel. to EF-C [3, 10]	Fibril / Fibril Formation [1]	ThT Cat. / ThT-Fluorescence (categorical) [2]	Inf. rel. EF-C [3, 12]	Log10 Infection Rel EF-C [3, 13]	other results
RGEKIKIQINM [CN18]	1	1 (ThT. Cat is 1, if Rel. ThT >2)	medium	-0.6134					Tht rel to blank (42.1851851851852) [2, 4]: 3.423; Absolute Infectivity / RLU /s (Feb2021) [3, 5]: 7838 RLU /s; n-fold to virus (Feb2021) [3, 6]: 10.23; Log10 of Rel to EFC (Feb2021) [3, 7]: -0.6134; Rel-to EFC (Feb-2021) [3, 8]: 0.2436
LASLIYR [reference compound]					0	0 (ThT-inactive (N-Fold <2))	0.06		Log10 Infection Rel EF-C [3, 11]: -1.2
RINFWFW					0	1 (ThT. Cat is 1, if Rel. ThT >2)	0.04	-1.347	
CKIKIWIW					1	1 (ThT. Cat is 1, if Rel. ThT >2)	0.86	-0.06382	
HHHHKIKIQINMYYYY [TM16]	1	1 (ThT. Cat is 1, if Rel. ThT >2)	high	0.04454					Tht rel to blank (42.1851851851852) [2, 4]: 12.17; Absolute Infectivity / RLU /s (Feb2021) [3, 5]: 22408.88889 RLU /s; n-fold to virus (Feb2021) [3, 6]: 46.56; Log10 of Rel to EFC (Feb2021) [3, 7]: 0.04454; Rel-to EFC (Feb-2021) [3, 8]: 1.108; Rel-to EFC [3, 14]: 1.108; n-fold to virus [3, 15]: 46.56; infectivity [3, 16]: high
RVRVTVT					0	0 (ThT-inactive (N-Fold <2))	0.06	-1.225	Inf. rel. EF-C [3, 17]: 0.05962; Inf. rel. EF-C [3, 18]: 0.04632; Inf. rel. EF-C [3, 19]: 0.07129; Inf. rel. EF-C [3, 20]: 0.06124
EIEIQINMWQ [VH8]	0.5		medium	-0.881					Tht rel to blank (42.1851851851852) [2, 21]: 4.145; Rel-to EFC (Feb-2021) [3, 22]: 0.1315; n-fold to virus (Feb2021) [3, 23]: 5.526; Log10 of Rel to EFC (Feb2021) [3, 24]: -0.881
IIIQGK [reference compound]					0	0 (ThT-inactive (N-Fold <2))	0.06		Log10 Infection Rel EF-C [3, 11]: -1.21
RFWFWFW					0	1 (ThT. Cat is 1, if Rel. ThT >2)	0.32	-0.495	
RGDKIKIQINMC [psis29]	1	0 (ThT-inactive (N-Fold <2))	high	0.02911					TEM: 1= fibrils, 0= aggregates (micelle), 0.5 = aggregates and fibrils, -1 = nothing obersved, STD prep ([1]; FigS26): 1; Tht rel to blank (42.1851851851852) [2, 21]: 1.396; Tht rel to blank (42.1851851851852) [2, 25]: 1.396; n-fold to virus (Feb2021) [3, 26]: 44.93; Log10 of Rel to EFC (Feb2021) [3, 27]: 0.02911; Rel-to EFC (Feb-2021) [3, 28]: 1.069; infectivity [3, 16]: high; Rel-to EFC (Feb-2021) [3, 22]: 1.069; n-fold to virus (Feb2021) [3, 23]: 44.93; Log10 of Rel to EFC (Feb2021) [3, 24]: 0.02911
IIIK [reference compound]					0	0 (ThT-inactive (N-Fold <2))	0.05		Log10 Infection Rel EF-C [3, 11]: -1.29
KLKLTLT					1	1 (ThT. Cat is 1, if Rel. ThT >2)	0.04	-1.415	Inf. rel. EF-C [3, 17]: 0.03847; Inf. rel. EF-C [3, 18]: 0.0783; Inf. rel. EF-C [3, 19]: 0.01816; Inf. rel. EF-C [3, 20]: 0.01895
KIKIKIKI [TM13]	0	1 (ThT. Cat is 1, if Rel. ThT >2)		-1.487					Tht rel to blank (42.1851851851852) [2, 25]: 3.325; n-fold to virus (Feb2021) [3, 26]: 1.369; Log10 of Rel to EFC (Feb2021) [3, 27]: -1.487; Rel-to EFC (Feb-2021) [3, 28]: 0.03258; infectivity [3, 16]: low
HIHIQIC [CN12]	1	1 (ThT. Cat is 1, if Rel. ThT >2)	medium	-0.5672					Tht rel to blank (42.1851851851852) [2, 4]: 12.46; Absolute Infectivity / RLU /s (Feb2021) [3, 5]: 4621 RLU /s; n-fold to virus (Feb2021) [3, 6]: 11.38; Log10 of Rel to EFC (Feb2021) [3, 7]: -0.5672; Rel-to EFC (Feb-2021) [3, 8]: 0.2709; Rel-to EFC [3, 14]: 0.2709; n-fold to virus [3, 15]: 11.38
